Patent US9422235B2, “Sulfonamide derivatives with therapeutic indications” (Pharmos Corporation, priority 2006, dated 2016)
Like-named read-outs stand apart in the source and are kept apart here.

Columns and labels:
[1] = target: human CB2 receptor (Homo sapiens (Human), UniProt P34972); experiment: [35S]GTPγS-binding assay, functional activity at the human CB2 receptor; format: biochemical; settings: Cell line C2-4
Description: Functional activity of compounds of the invention toward the cannabinoid receptors was determined by stimulation of [^35S]-GTPγS binding using membranes from HEK-293 cells expressing the hCB1 receptor and membranes expressing the hCB2 receptor derived from either Sf9 (PerkinElmer) or from HEK-293 cells. Activities were compared to that of the known cannabinoid full agonist CP55940 (Alexis). The purpose of this experiment is to determine the potency of the compounds of the invention as agonists or antagonists toward each of the receptor tested.
[^35]-GTPγS binding reactions were performed at 30° C. in 96-well plates containing 5-10 μg membrane protein suspended in 0.1 ml binding buffer (20 mM HEPES-NaOH, pH 7.4, 5 mM MgCl2, 100 mM NaCt, 0.2% (w/v) bovine serum albumin) supplemented with 50 μM GDP and 0.06 nM-10 μM of the compound being tested. Binding was initiated by the addition of [^35S]GTPγS (0.3 nM final concentration). Incubations were performed for 90 minutes and were terminated by filtration on GF/C filter plates (PerkinElmer). Filters were washed ten times with ice-cold wash buffer (20 mM HEPES-NaOH, pH 7.4, 10 mM sodium pyrophosphate). Non-specific binding was measured in the presence of 15 μM GTPγS.
Assays were performed in duplicates. Data was analyzed by plotting on the X axis the log concentration against percent of specific [^35S]GTPγS binding out of basal [^35S]GTPγS binding on the Y axis, non-linear regression is then performed using GraphPad Prism, version 3.0 (GraphPad, San Diego, Calif.) to calculate the EC50 and Emax of the compound. The EC50 value represents the concentration at which there is 50% [^35S]GTPγS binding and the Emax value the upper plateau of the curve.
CP55940 is a full agonist of the human and rat CB2 receptors. […] Full or partial agonism at the receptor was determined relative to the Emax value of CP55940.

[2] = tested on: Male Sprague Dawley rats; experiment: Chronic constriction induced (CCI) model of neuropathic pain, mechanical hyperalgesia; format: in vivo, rat; settings: 10 mg/kg, s.i.d, 14 days
Description: The analgesic activity of compounds of the invention is assessed in a chronic constriction induced (CCI) model of neuropathic pain. A peripheral neuropathy is induced in the left hind limb of rats following a chronic constriction of the sciatic nerve according to Bennet et al. (Bennet, G. J. & Xie, Y-K., Pain 33: 87-107, 1988). The development of mechanical hyperalgesia is monitored using an established behavioral test analgesy meter or dynamic planter aesthesiometer.
Pre-surgery baseline values are ascertained as the mean of 2 pre-surgery values. Once the baseline values are established, the animals are surgically prepared by constricting the left sciatic nerve with 4-0 chromic catgut loose ligatures. […]
The design is randomized, performed in a masked fashion as to whether drug or vehicle is being given. […] On the testing day, 24 hours after administration period lapsed, the differences between ipsilateral and contralateral hind leg thresholds were measured in grams using the Dynamic planter aesthesiometer or analgesy meter (Ugo basile).
Results are expressed as mean±SEM for each treatment group and the differences among those groups are analyzed by analysis of variance (ANOVA) followed by post-hoc analysis using Tukey's test. […]

[3] = tested on: Male Sprague Dawley rats; experiment: CFA-induced acute inflammatory pain, mechanical stimulus (Dynamic Plantar Aesthesiometer); format: in vivo, rat; settings: three hours post administration
Description: Acute Inflammatory Pain. The purpose of this study is to test the analgesic activity of the compounds in inflammatory pain. Inflammatory pain is nociceptive in nature, wherein the pain sensation is often perceived for longer period than in acute pain. In the present model the duration of the preventive activity of compounds against inflammatory acute pain was assessed for up to about three hours post-drug administration. Inflammatory pain and paw edema were induced by intraplantar injection of 50% Complete Freund's Adjuvant (CFA) suspension in the animal hind paw. […]
Prior to, 24 hours post induction of inflammatory pain and one and three hours after drug administration, the animals reactions to pain stimuli were tested by mechanical stimulus. The mechanical (tactile) analgesia was assessed using a Dynamic Plantar Aesthesiomether (Ugo Basile Model 73400-002). […]
The results are presented as the force needed for hind paw withdrawal before surgery, 24 hours post surgery and 1 and 3 hours post drug administration. Results are expressed as mean±SEM for each treatment group and the differences among those groups are analyzed by analysis of variance (ANOVA). […]
The baseline values for the force to be applied for left hind paw withdrawal following mechanical stimuli is about 30 gram before inflammatory pain induction. […] Results, expressed as Force measured in grams, are depicted in FIG. 3.

[4] = tested on: female BALB/c mice; experiment: Dextran Sulfate Salt (DSS)-induced acute colitis; format: in vivo, mouse; settings: for % Survival / Clinical score / Percentage change in body weight: i.p.
Source text: In order to test the activity of compounds of the invention in an animal model of inflammatory bowel disease, female BALB/c mice 9-12 week old (Harlan, Israel) were used for Dextran Sulfate Salt (DSS)-induced acute colitis studies. Mice (ten per treatment group) were provided with a solution of tap water containing 5% DSS (MW. 36000-50000; MP Biomedicals, LLC) ad libitum over an 8 day period. The DSS solution was replenished every other day and switched to tap water at day 8. Body weight was measured daily. The clinical scores combined both macroscopic (diarrhea, body weight, mortality) as well as microscopic (pathological) scores. Diarrhea score in the studies for each animal represented the daily summary of stool consistency (scored as: 0, normal; 1, soft but still formed; 2, very soft; 3, diarrhea) and the presence of blood in stool (scored: 0, None; 1, visible blood traces in stool; 2, signs of blood; 3, rectal bleeding). At the end of experiment animals were euthanized and their colons are examined for signs of pathological damage. The pathological scores, colon length and weight were determined from the cecum to the anus (scored: 0, normal; 1, slight inflammation; 2, moderate inflammation and/or edema; 3, heavy inflammation and/or ulceration and/or edema).
Two compounds were tested in DSS-induced colitis in mice, compounds 4 and 58. […] Results are expressed as mean ± SEM for each treatment group and the differences among those groups are analyzed by T-test. Two crosshatches indicate a p value below 0.01 and three indicate a p value below 0.001. Asterisks denote statistical significant weight loss relative to animal weight in the beginning of the experiment.
Alternatively, compound 58 (30 mg/kg) was administered orally from the first day of DSS administration (day 1) until the end of the experiment (day 10).

Sequence of human CB2 receptor (P34972 whole entry): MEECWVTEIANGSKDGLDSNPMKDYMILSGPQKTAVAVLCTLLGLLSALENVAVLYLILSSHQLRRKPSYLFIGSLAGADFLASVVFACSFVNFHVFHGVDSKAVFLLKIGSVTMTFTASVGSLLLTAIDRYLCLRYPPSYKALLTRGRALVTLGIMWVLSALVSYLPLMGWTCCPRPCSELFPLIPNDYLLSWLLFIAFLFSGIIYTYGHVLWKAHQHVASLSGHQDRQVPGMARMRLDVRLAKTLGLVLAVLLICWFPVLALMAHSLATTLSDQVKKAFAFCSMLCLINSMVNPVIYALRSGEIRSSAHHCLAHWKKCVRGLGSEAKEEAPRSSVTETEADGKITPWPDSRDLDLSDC

In the case of `COc1cc(Nc2ccc(S(=O)(=O)NCC3CC3)c(C(F)(F)F)c2)cc(OC)c1` [Compound 4, N-Cyclopropylmethyl-4-(3,5-dimethoxy-phenylamino)-2-trifluoromethyl-benzenesulfonamide], the Emax ([1]; Emax of compound divided by Emax of CP55940, read-out: % Activity (relative to CP55,940)) was 51%, the Emax ([1]; upper plateau of [35S]GTPγS binding curve, read-out: Emax (%)) was 26% and the “reduction of the CCI induced hyperalgesia” value [2] was “significant reduction”. For the same compound, the “reversal of pain threshold of injured paw” value ([3]; 10 mg/kg i.p.) was 50%, the “reversal of pain threshold of injured paw” value ([3]; 30 mg/kg i.p.) was 100% and the “% Survival” value ([4]; 20 mg/kg) was 90%. The Clinical score ([4]; 20 mg/kg) was 3.4 ± 0.7, the “Percentage change in body weight” value ([4]; 20 mg/kg) was −9.6 ± 1.59 % and the “% Survival” value ([4]; 40 mg/kg) was 100%. For the same compound, the Clinical score ([4]; 40 mg/kg) was 3.1 ± 0.6, the “Percentage change in body weight” value ([4]; 40 mg/kg) was −5 ± 2.3 % and the “efficacy in DSS-induced colitis (weight loss, clinical signs or gross pathology)” value ([4]; administered intraperitoneally) was “modest efficacy”.
